Laboratory results reported in patent US20240285670A1, “THERAPEUTIC TREATMENT OF TUMORS BY BLOCKING THE HEME SYNTHESIS-EXPORT AXIS” (Università degli Studi di Torino, priority 2021, published 2024).

Legend:
lung tumor LLC cells = assay: LLC cell viability (CellTiter-Fluor) as readout of proliferation; format: cell-based, murine; details: 5 mM ALA at day 0, no medium refresh
FLVCR1a = assay: qRT-PCR analysis of FLVCR1a expression in SHSY5Y cells; format: cell-based, human; details: 5 mM ALA for 15 hours vs non-treated
Experimental: (§1) (A) Heme content in SHSY5Y cells non-treated (NT) or treated with 5 mM ALA for 15 hours. Values are expressed as pmol heme/mg protein. Data represent mean±SEM, n=3; *=P<0.05. (B, C) qRT-PCR analysis of the expression of ALAS1 (B) and FLVCR1a (C) in SHSY5Y cells non-treated (NT) or treated with 5 mM ALA for 15 hours. Transcript abundance, normalized to beta-actin mRNA expression, is expressed as a fold increase over a calibrator sample. Data represent mean±SEM, n=4. For statistical analyses, an unpaired Student's t-test was used; *p<0.05. (D) qRT-PCR analysis of the expression of ALAS1 in SKCO1 cells untreated (NT) or treated with 5 mM ALA for 24 hours. Transcript abundance, normalized to beta-actin mRNA expression, is expressed as a fold increase over a calibrator sample. Data represent mean±SEM, n=5. […] Band intensities were measured by densitometry and normalized to beta-actin expression. […] (F) Proliferation of SHSY5Y cells assessed by crystal violet staining at different time points (starting from the day after plating, named “day 0”). Treatment with 5 mM ALA occurred at “day 0” and cells were monitored until the end of the experiment without medium refresh. […] (G) SKCO1 cells viability measured by the CellTiter-Fluor Cell Viability Assay (Promega, Madison, WI USA, catalog n°G6080) at different time points, starting from the day after plating (named “day 0”), as a readout of cell proliferation. […]

SHSY5Y cells = assay: Proliferation of SHSY5Y cells by crystal violet staining; format: cell-based, human; details: 5 mM ALA at day 0, no medium refresh
Experimental: as §1

C80 cells = assay: Mitochondrial ATP levels in C80 cells; format: cell-based, human; details: FLVCR1a-silenced vs scramble shRNA C80 cells
From the text: (A, C, E) Activities of the mitochondrial electron transport chain complexes I-IV. FLVCR1a-silenced Caco2 (A), SKCO1 (C) or C80 cells (E) are compared to cells expressing a scramble shRNA. Results were expressed as nmol NAD^+/min/mg mitochondrial protein for complex I, nmol reduced cytochrome c/min/mg mitochondrial protein for complexes II-III, nmol oxidized cytochrome c/min/mg mitochondrial protein for complex IV. Data represent mean±SEM, n=3. For statistical analyses, an unpaired Student's t-test was used; *=p<0.05, **=p<0.01. (B, D, F) Mitochondrial ATP levels measured by a bioluminescent assay kit. FLVCR1a-silenced Caco2 (B), SKCO1 (D) or C80 cells (F) are compared to cells expressing a scramble shRNA. Results are expressed as nmol/mg mitochondrial proteins. […] Results were expressed as nmol NAD^+/min/mg mitochondrial protein for complex I, nmol reduced cytochrome c/min/mg mitochondrial protein for complexes II-III, nmol oxidized cytochrome c/min/mg mitochondrial protein for complex IV. […] (H) Mitochondrial ATP levels measured by a bioluminescent assay kit in Caco2 cells overexpressing FLVCR1a (indicated as FLVCR1a+) compared to cells stably transduced with an empty vector. Results are expressed as nmol/mg mitochondrial proteins. […]
ATP levels in mitochondria extracts were assessed by the ATP Bioluminescent Assay Kit (Sigma-Aldrich, St. Louis, MO USA, catalog n° FLAA). […]

Row | Compound | cell proliferation (cell viability) (lung tumor LLC cells) | FLVCR1a transcript levels (FLVCR1a) | cell proliferation (SHSY5Y cells) | mitochondrial ATP levels (C80 cells)
1 | Cl.NCC(=O)CCC(=O)O [5-ALA, 5-Aminolevulinic acid hydrochloride] | significantly reduced | reduced | reduced SHSY5Y cell proliferation | 
2 | FLVCR1a shRNA: shRNA specifically down-regulating FLVCR1a without targeting FLVCR1b; pLKO.1 lentiviral clone TRCN0000059599, antisense SEQ ID No.: 2 (antisense TTGCTAATGATGCTGTACTGG; sense CCAGTACAGCATCATTAGCAA) |  |  |  | increased
